Experimental data reported in patent publication US7342034B2, “Fused heterocyclic compounds and analogs thereof, modulators of nuclear hormone receptor function” (Bristol-Myers Squibb Company, priority 2001, dated 2008).
pKd: −log10 of the molar value. Read-outs that look alike come from different tables or passages of the source.

Columns and labels:
[1] = target: T1, AR (Rattus norvegicus, UniProt P15207)
T1 sequence (P15207 1-902): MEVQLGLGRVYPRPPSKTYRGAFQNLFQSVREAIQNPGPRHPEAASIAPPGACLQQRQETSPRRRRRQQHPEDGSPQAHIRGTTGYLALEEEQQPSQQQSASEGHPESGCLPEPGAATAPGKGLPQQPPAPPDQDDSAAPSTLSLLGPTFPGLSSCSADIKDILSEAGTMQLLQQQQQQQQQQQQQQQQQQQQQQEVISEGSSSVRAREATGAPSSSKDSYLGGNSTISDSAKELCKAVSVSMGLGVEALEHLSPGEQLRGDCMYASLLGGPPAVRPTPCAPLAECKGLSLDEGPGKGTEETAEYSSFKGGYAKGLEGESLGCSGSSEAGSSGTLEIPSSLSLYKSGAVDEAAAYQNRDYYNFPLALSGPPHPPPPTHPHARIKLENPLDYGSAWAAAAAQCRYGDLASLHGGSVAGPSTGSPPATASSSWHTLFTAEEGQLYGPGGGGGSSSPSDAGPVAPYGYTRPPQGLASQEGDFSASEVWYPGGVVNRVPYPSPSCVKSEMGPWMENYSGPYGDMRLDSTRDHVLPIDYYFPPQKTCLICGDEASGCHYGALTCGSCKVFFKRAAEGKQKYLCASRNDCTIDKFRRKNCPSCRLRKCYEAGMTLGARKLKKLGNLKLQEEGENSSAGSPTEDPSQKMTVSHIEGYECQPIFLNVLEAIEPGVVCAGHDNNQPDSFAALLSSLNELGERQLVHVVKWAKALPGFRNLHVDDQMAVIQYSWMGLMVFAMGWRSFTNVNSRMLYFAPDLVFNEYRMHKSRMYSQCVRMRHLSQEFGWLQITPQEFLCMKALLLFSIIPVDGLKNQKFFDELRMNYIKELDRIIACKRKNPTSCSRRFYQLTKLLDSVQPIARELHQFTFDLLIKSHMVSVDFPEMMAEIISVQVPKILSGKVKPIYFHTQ

[2] = target: T1, AR; settings: castrated rats
Excerpt: The activity of compounds of the present invention as AR agonists was investigated in an immature male rat model, a recognized test of anabolic effects in muscle and sustaining effects in sex organs for a given compound, as described in L. G. Hershberger et al., Proc. Soc. […] Yak. Ken. Nem.
The basis of this assay lies in the well-defined action of androgenic agents on the maintenance and growth of muscle tissues and sexual accessory organs in animals and man. […] J. Anat. […] Ital. Biol. Sper. […] II. […] Ital. Biol. Sper. […] As described above, the effects of androgens on maintenance of male sexual accessory organs, such as the prostate and seminal vesicles, is well described. Castration results in rapid involution and atrophy of the prostate and seminal vesicles. This effect can be reversed by exogenous addition of androgens. Since both the levator ani muscle and the male sex organs are the tissues most responsive to the effects of androgenic agents, this model is used to determine the androgen dependent reversal of atrophy in the levator ani muscle and the sex accessory organs in immature castrated rats. Sexually mature rats (200-250 g, 6-8 weeks-old, Sprague-Dawley, Harlan) were acquired castrated from the vendor (Taconic). The rats were divided into groups and treated daily for 7 to 14 days with one of the following: • 1. Control vehicle • 2. […]

[3] = target: wild type AR; settings: read-out: Kd for [^3H]-DHT; MDA 453 cells, saturation analysis, Scatchard
Procedure: For the saturation analysis, the difference between the total binding and the non-specific binding, was defined as specific binding.
Two replicates were used for each sample. After 4 hours at 37° C., cells were washed, harvested and counted as described above. […] The KI, values were determined by application of the Cheng-Prusoff equation to the IC50 values, where:
[formula] After correcting for non-specific binding, IC50 values were determined. […]

| Compound | ED80 ([1]; immature castrated rat model) [mg] | EC50 (increase in organ weight) ([1]; immature castrated rats, 3 days dosing) [mg] | higher potency than free T ([1]; organ weight increase, immature castrated rats) | EC50 (increase in organ weight) ([2]; 3 days dosing) [mg] | higher potency than free T ([2]; organ weight increase) | pKd [3] |
| --- | --- | --- | --- | --- | --- | --- |
| CCC(=O)O[C@H]1CC[C@H]2[C@@H]3CCC4=CC(=O)CC[C@]4(C)[C@H]3CC[C@]12C [TP, testosterone propionate] | 0.1 | ~0.03 | 10-30 fold | ~0.03 | 10-30 fold | – |
| tritiated dihydrotestosterone [[^3H]-DHT] | – | – | – | – | – | 9.15 |
